Test results taken from the supplement of paper PMC10307832.

Legend:
Experiment in all cases: relative viability (nuclei count vs DMSO), 5 days (fraction); higher = more cells survive
[1] = compound: CCCS(=O)(=O)Nc1ccc(F)c(C(=O)c2c[nH]c3ncc(-c4ccc(Cl)cc4)cc23)c1F [Vemurafenib]
Summary of the method: (§1)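 Only plates meeting two conditions passed: control CV below 25% and at least one doubling. Lung cancer cell lines, kept overnight at 37 °C in 1536-well plates, were pinned with five library-drug doses (not always all listed) √10 apart on vehicle-anchored plates and grown 5 days without medium change. A one-step fix, permeabilisation and Hoechst stain preceded 4× imaging and MetaXpress nuclear counting. Viability equals treated-well nuclei divided by vehicle-well nuclei, as the median over plates.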

[2] = compound: COc1cccc2cc(-c3nc([C@H]4CC[C@H](C(=O)O)CC4)n4ncnc(N)c34)[nH]c12 [OSI-027]
Summary of the method: as §1

[3] = compound: Cc1nc(NC(=O)N2CCC[C@H]2C(N)=O)sc1-c1ccnc(C(C)(C)C(F)(F)F)c1 [Alpelisib]
Summary of the method: as §1

[4] = compound: CCCS(=O)(=O)Nc1ccc(F)c(C(=O)c2c[nH]c3ncc(-c4ccc(Cl)cc4)cc23)c1F [Vemurafenib] + CC(C)C[C@H](NC(=O)[C@H](Cc1ccccc1)NC(=O)c1cnccn1)B(O)O [Bortezomib] (partner 0.002 µM)
Summary of the method: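 For relative viability, nuclei counts in treated wells were divided by those in vehicle wells. Lung cancer cell lines had been pin-tool dosed in 1536-well plates the day after seeding and cultured for 5 days, then fixed and stained in one step (final 0.05% Triton X-100, 1% formaldehyde, 1 ug/ml Hoechst) and imaged at 4×. Doses were one drug alone or a fixed anchor-drug dose plus five library-drug doses (not always all listed) in √10 steps, and values are duplicate-plate medians.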

Cell Line	relative viability ([1]; 0.03162 µM)	relative viability ([1]; 0.1 µM)	relative viability ([1]; 0.3162 µM)	relative viability ([1]; 1 µM)	relative viability ([2]; 0.01 µM)	relative viability ([2]; 0.03162 µM)	relative viability ([2]; 0.1 µM)	relative viability ([2]; 0.3162 µM)	relative viability ([2]; 1 µM)	relative viability ([3]; 0.04 µM)	relative viability ([3]; 0.1265 µM)	relative viability ([3]; 0.4 µM)	relative viability ([3]; 1.265 µM)	relative viability ([3]; 2 µM, anchor plate)	relative viability ([3]; 4 µM)	relative viability ([4]; first compound 0.03162 µM)	relative viability ([4]; first compound 0.1 µM)	relative viability ([4]; first compound 0.3162 µM)	relative viability ([4]; first compound 1 µM)	relative viability ([2]; 0.5 µM, anchor plate)
NCI-H1299	1.01	0.98	0.895	0.991	1	0.995	1.02	1.06	0.825	1.03	1.04	1.07	0.988	1.04	0.945	0.998	0.976	0.918	1	
NCI-H1355	0.933	0.908	0.925	0.96	0.985	0.985	0.898	0.823	0.444	0.944	0.96	1	0.876	0.855	0.867	1.21	1.19	1.15	1.23	0.451
NCI-H1437	0.904	0.958	0.974	1.05	1	0.921	1.01	0.914	0.565	1	0.948	1.06	0.864	0.965	0.89	0.439	0.411	0.622	0.541	0.881
NCI-H1563	0.989	0.905	0.967	0.988	0.979	0.955	0.953	0.854	0.75	0.942	0.971	0.948	0.768	0.966	0.84	0.855	0.658	0.762	0.846	0.769
NCI-H1650	0.774	0.701	0.924	1.01	0.937	0.843	0.912	0.893	0.421	0.935	0.801	1.06	0.814		0.815	0.223		0.208	0.217	0.689
NCI-H1651	0.919	0.998	0.887	0.966	0.96	0.828	0.977	0.901	0.723	0.891	1.02	1.01	0.844	0.973	0.841	0.851	0.949	0.769	1	0.71
NCI-H1666	0.946	0.902	1.1	0.926	0.99	0.986	0.98	0.88	0.666	0.997	0.98	1.13	0.84	0.977	0.8	0.839		0.98	0.759	0.863
NCI-H1703	1.02	0.864	0.795	0.986	0.913	0.948	0.759	0.657	0.434	0.89	0.642	0.654	0.465	0.348	0.462	0.527	0.438	0.32	0.257	
NCI-H1734	0.967	1.02	0.779	0.875	0.962	0.991	0.826	0.785	0.684	0.917	0.857	1	0.644	0.674	0.508	0.855	1.01	0.709	0.815	0.615
NCI-H1755	0.958	0.969	0.823	0.957	0.983	0.921	0.988	0.898	0.78	0.989	1.01	0.986	0.876	0.942	0.853	0.877	0.878	0.712	0.931	0.745
NCI-H1792	0.776	0.904	0.624	0.914	0.658	0.841	0.843	0.709	0.374	0.89	0.724	0.819	0.636	0.728	0.383	0.875	0.951	0.721	0.957	0.784
NCI-H1915	0.948	0.964	0.755	0.845	1.05	1.09	0.967	0.891	0.791	1.01	0.998	0.976	0.948	1.06	0.893	0.894	0.995	0.886	0.91	0.601
NCI-H1975	0.922	0.9	0.696	0.886	0.977	0.924	0.926	0.953	0.622	0.918	0.968	0.984	0.664	0.679	0.561	0.361	0.313	0.24	0.385	0.729
NCI-H1993	0.844		0.993	0.974	0.803	0.817	0.704	0.611	0.438	0.862	0.86	0.961	0.698	0.707	0.609	1.02		1.25	1.03	0.558
NCI-H2009	0.95	0.938	0.716	0.866	1.01	0.992	0.965	0.948	0.617	0.974	1.05	1.19	1.01	1.13	0.903	0.944	0.922	0.583	0.778	0.629
NCI-H2023	0.915	0.863	0.908	0.957	0.952	0.855	0.819	0.566	0.377	0.876	0.928	0.93	0.649	0.6	0.5	0.869	0.948	0.859	0.943	0.429
